Source: a melting point compilation (Tetko et al.; mined from patent text by program, amines drawn as free bases though some values may be those of a salt)

| SMILES | melting point [°C] |
| --- | --- |
| CC(=O)NCCC1CCc2c(F)cc3nn(C)cc3c21 (stereo not given) | 116 to 119 |
| Cc1cc(Cc2ccccc2)c(NS(=O)(=O)Cc2ccccc2)c(=O)n1CC(=O)O | > 200 |
| COc1c(Cl)ccc(-c2nc(C(=O)OC(C)C)c(Cl)c(N)c2F)c1F | 109 to 111 |
| CC(=O)Nc1ccc(-c2cc(C(=O)c3ccc(C)cc3)sc2N2CCOCC2)cc1 | 168 |
| C#CCCCCC12SCC(CCC)(CS1)CS2 | 88 |
| Cc1ccc(-c2ccc(C(=O)Nc3ccc4nc(CN(C)C)ccc4c3)cn2)cc1 | 220 to 222 |
| COc1ccc(S(=O)(=O)n2ccc3cccc(-c4ccc(F)cc4)c32)cc1 | 181 to 182 |
| CCC(CC)N(O)C(=O)Nc1ccc([N+](=O)[O-])cc1 | 169 to 170 |
| O=C(c1ccc(F)cc1)c1ccc(C#Cc2ccc(F)cc2)cc1 | 190 to 191 |
| Cc1nc(Sc2cc(C(=O)O)nc3ccccc23)sc1CC(=O)O | 219 to 220 |
| O=C1Nc2ccc(Cl)cc2C(OCC2CC2)(C(F)(F)F)CN1C1CCC1 (stereo not given) | 156 |
| CNC(=O)C(Cc1ccc(OC)cc1)NC(=O)C(CC(C)C)C(S)CC(=O)NCC(=O)O (stereo not given) | 228 to 231 |
| Cc1cc(N)nc(CCc2nc3cc(-c4ccc(S(=O)(=O)N(C)C)cc4)cnc3[nH]2)c1 | 157 |
| CCOC(=O)c1coc(=O)cc1S(C)(=O)=O | 95 to 97 |
| CC(C)(C)c1cc(C(=O)c2cc3c(cc2O)CCC3)cc(C(C)(C)C)c1O | 155 to 156 |
| CC(=O)OCC1C(C(=O)O)C1(C)C (stereo not given) | 78 to 79 |
| O=C1c2ccccc2C(=O)N1c1cccc(S(F)(F)(F)(F)F)c1 | 188 to 190 |
| COc1ccc(Br)c(C=O)c1 | 73 to 74 |
| Cc1cc(C)cc(CC(=O)c2ccncc2)c1 | 96 to 97 |
| CC1(c2ccccc2)OC(C=Cc2ccncc2)=CC1=O (stereo not given) | 165 to 166 |

| SMILES | melting point [°C] |
| --- | --- |
| CCS(=O)(=O)N[C@H](C(=O)NCCc1ccc(OCc2ccccc2)cc1)C(C)C | 133 to 134 |
| CC1C(=O)NC(=O)N(Cc2ccccc2)C1=O (stereo not given) | 128 to 129 |
| COc1cc2cnc(Cl)nc2cc1OC | 237 to 238 |
| COC(=O)c1cc(COc2nn(-c3ccccc3)cc2C=O)ccc1OCc1nc(-c2ccco2)oc1C | 173 to 174 |
| COc1cc(C(=O)NS(=O)(=O)c2ccccc2C)ccc1Cc1cccc2ccc(CCCC(=O)N3CCOCC3)cc12 | 100 to 102 |
| Cc1cccc(C)c1N(CCCC(=O)NCCCC(=O)O)C(=O)c1ccc(Cl)cc1 | 141 to 142 |
| CC(C)N(CCCCOCC(=O)O)c1nnc(-c2ccccc2)c(-c2ccccc2)n1 | 128 to 130 |
| O=C(CO)Cc1ccccc1 | 42 to 43 |
| COC(=O)[C@H](Cc1ccc(OCc2ccccc2)cc1)NC(=O)C(CSC(C)=O)Cc1ccccc1 (stereo not given in full) | 92 to 93 |
| COc1ccc(Cn2nnc(-c3ccc(C(F)(F)F)cc3F)c2N)cc1 | 153 to 154 |
| CCOC(=O)C(CCC#N)(C(=O)OCC)c1ncc([N+](=O)[O-])cc1C | 64 to 65.5 |
| O=C(O)C1(c2ccccc2)CCN(CCC(c2ccccc2)(c2ccccc2)c2ccccn2)CC1 | 270 to 275 |
| CN(C)C(=O)C1CCN(c2c(Cl)cncc2Cl)CC1 | 120 to 122 |
| CC1=C(C(=O)Nc2ccccc2)SC2=NCCN21 | 204 to 205 |
| COc1ccc(CN(CCCNc2nccc(=O)[nH]2)c2ccccn2)cc1 | 63 to 80 |
| CCOC(=O)c1cc(C)c(Cl)nc1C(=O)OCC | 84 to 86 |
| CCOC(=O)C1[C@@H]2[C@@H](O)[C@@H]3O[C@H](c4ccc(F)cc4F)OC[C@H]3O[C@H]12 (stereo not given in full) | 130 to 133 |
| O=C(Nc1ccc2c(c1)CCC2=O)c1ccc(-c2ccccc2)cc1 | 217 to 219 |
| COc1ccc(-c2c(NC(=O)Nc3ccc(F)cc3F)c(=O)oc3ccc(Cl)cc23)cc1OC | 267 to 270 |
| O=c1c2c(oc3ccccc13)O2 | 66 to 67 |
